From patent US7687473B2, “5-amino-4-imidazolecarboxamide riboside and its nucleobase as potentiators of antifolate transport and metabolism” (Health Research, Inc., priority 2005, dated 2010)
Where two headings read alike, the source gives them in different places.

Experiments:
[1] = tested on: dCK-deficient subline of CCRF-CEM; experiment: [3H]MTX uptake in deoxycytidine kinase-deficient subline; assay type: cell-based, human; conditions: compared to parental CCRF-CEM
Method: Z metabolism by deoxycytidine kinase is not essential for Z potentiation. These experiments were conducted to determine if Z itself can cause potentiation orf needs to be metabolized to exert its effect. For these experiments, a deoxycytidine kinase (dCK)-deficient subline of CCRF-CEM was used. Although designated as dCK, this enzyme also phosphorylates the purines deoxyadenosine, deoxyguanosine, and fludarabine. Use of this subline allowed us to test the hypothesis that phosphorylation of Z to ZMP by dCK is essential for potentiation. […] Thus it appears that dCK is not absolutely required for Z potentiation, but may contribute to the metabolism.

[2] = tested on: K562 human chronic myelogenous leukemia cell line; experiment: [3H]MTX influx in K562 cells; assay type: cell-based; conditions: 0.5 mM Z; data not shown
[3] = tested on: araC 8C subline of CCRF-CEM; experiment: [3H]MTX uptake in es-deficient araC 8C subline; assay type: cell-based, human; conditions: 30 min time course ±Z
Method: Z potentiation was evaluated: (1) in a subline of CCRF-CEM (araC 8C) deficient in the es (or ENT1) facilitated diffusion nucleoside transport system (this is the only nucleoside transporter present in CCRF-CEM cells); and (2) in the presence of specific inhibitors of the es nucleoside transporter. […] Note that potentiation by Z is large in these studies because they were performed in HBSS to avoid binding of inhibitors by serum proteins and Z potentiation is higher in HBSS than in RPMI1640. […] Concentration-dependence studies are proposed to quantitate the potency of each inhibitor (IC50).

[4] = human, in vivo; cited from earlier work
CCRF-CEM cells [5] = experiment: cells; assay type: cell-based, human; conditions: read-out: EC50, growth inhibition
Method: (§1) Inhibition of growth of human cell lines in vitro. Inhibition of growth of CCRF-CEM in continuous and intermittent drug exposures was measured. EC50 values were determined from plots of percent control growth versus the logarithm of drug concentration.
[…]; n=2). […]; n=2). Values presented are average±S.D. for n>2 and average±range for n=2. […] […]; EC50 data may therefore underestimate the biological potency.

[6] = tested on: R2 clones transfected with human RFC expression plasmid; experiment: [3H]MTX transport in RFC-transfected R2 clones; assay type: cell-based
Method: To further confirm the involvement of RFC, we transfected the RFC-negative R2 subline of CCRF-CEM with a human RFC expression plasmid. Stably expressing clones were selected in 2 nM leucovorin (LV)-containing RPMI 1640 medium (R2 cannot replicate in this medium, while parental RFC-expressing CCRF-CEM can replicate). […] This supports RFC as mediating the transport potentiated by Z.

[7] = tested on: R2 (MTX-resistant CCRF-CEM subline); experiment: Inhibition of growth of RFC-defective subline R2; assay type: cell-based; conditions: Homo sapiens, continuous exposure, no Z, read-out: EC50 against R2
Method: as §1
TMTX was present in both conditions to establish DHFR inhibition, since that appears to be required.

CCRF-CEM cells [8] = experiment: Subcellular localization of [3H]MTX; assay type: cell-based, human
Method: Subcellular fractionation. […] Cells were diluted 9-fold in iced 0.9% NaCl, centrifuged at 1000×g for 5 min and washed once with 40 ml iced saline. All subsequent steps were performed at 4°. Cells were homogenized as previously described, except that hypotonic buffer at 20-fold the packed cell volume was used, and the homogenate was centrifuged for 6 min at 1000×g to yield a nuclear pellet (also containing unlysed cells and large debris) and a post-nuclear supernatant (PNS). Based on controls using nonradiolabeled cells, >91% of the cells would be lysed during homogenization. The PNS was centrifuged at 17,000×g to yield a combined mitochondria-lysosome pellet. The resulting supernatant was centrifuged at 100,000×g for 60 min to yield the 100,000×g supernatant (cytosol). The 100,000×g pellet (microsomes) and the combined mitochondria-lysosome pellet were each washed in isotonic buffer and centrifuged at their respective g-forces. All pellets were solubilized in 0.3% Triton X-100 by incubating at 37° for 1 hr; 1 ml was transferred to a scintillation vial for quantitation. Triton X-100 was added to the cytosol to a final concentration of 0.3% and a 1 ml aliquot was quantitated. Radioactivity in each fraction was corrected for a blank containing 0.3% Triton X-100.

CCRF-CEM cells [9] = experiment: Protein-bound intracellular [3H]MTX; assay type: cell-based, human
Method: The cell pellet was frozen immediately at less than or equal to −80 degrees C. To process, 1 ml iced lysis buffer was added to the pellet immediately after removal from the freezer and the pellet was dispersed with a pasteur pipette. Freshly made lysis buffer contained (final concentrations): 50 mM citric-citrate, pH 6.0, 50 mM 2-mercaptoethanol, 50 μM NADPH (in 25 mM Tris, pH7.5), and 2 mg/ml bovine serum albumin. The sample was freeze-thawed once in dry ice-methanol, centrifuged at 1860×g for 10 min to remove debris and then further clarified by centrifugation through an Amicon MPS-1 filter unit. A 5 ml centrifugal column was prepared at 4 degrees C. in a 5 ml plastic syringe plugged with a porous plastic frit overlaid with a GF/C glass fiber filter cut with a #8 cork borer, then packed with Sephadex G-25 (Medium) in 50 mM citric-citrate, pH 6.0 to the 5 ml line, and centrifuged 5 min at 1000×g (0°) to expel liquid. The clarified supernatant (0.5 ml) was applied to the top of the column, the column was re-centrifuged at 1000×g (5 min) and the pass-through was collected in a 7 ml scintillation vial. After addition of scintillation fluid (5.5 ml), the sample was quantitated by liquid scintillation counting.

Row | EC50 (CCRF-CEM cells [5]; 0-24/120 hr exposure) | EC50 (CCRF-CEM cells [5]; 120 hr exposure) | EC50 [7] | Structure (SMILES) | Potentiation of [3H]MTX uptake in dCK-deficient subline [1] | Potentiation of [3H]MTX influx [2] | Potentiation of [3H]MTX uptake in araC 8C subline [3] | Toxicity in clinical trials [4] | Potentiation of [3H]MTX transport in RFC-transfected clones compared with CCRF-CEM [6] | Cytosol material that is MTX or metabolites (HPLC) (CCRF-CEM cells [8]) | Radioactivity that is cytosolic, post-nuclear supernatant only (CCRF-CEM cells [8]; nuclear pellet excluded) | Total recovered radioactivity in the cytosolic fraction (CCRF-CEM cells [8]; ±Z) | Protein-bound MTX level at 30 min (CCRF-CEM cells [9]; absence of Z) | Protein-bound MTX level at 30 min (CCRF-CEM cells [9]; presence of 0.5 mM Z)
1 | 410 ± 50 µM | 130 ± 20 µM | – | NC(=O)c1ncn([C@@H]2O[C@H](CO)[C@@H](O)[C@H]2O)c1N [Z, 5-amino-4-imidazolecarboxamide riboside] | showed potentiation by Z, although to a slightly lower level | potentiates | no potentiation | nontoxic | potentiated by Z to a similar extent | – | – | – | – | –
2 | – | – | 2.2 µM | CN(Cc1cnc2nc(N)nc(N)c2n1)c1ccc(C(=O)N[C@@H](CCC(=O)O)C(=O)O)cc1 [MTX, 4-amino-10-methylpteroylglutamic acid] | – | – | – | – | – | > 90% | > 98% | More than 91% | 6.4±0.1 pmol/10^7 cells | 5.4±0.4 pmol/10^7 cells
